From patent US10385022B2, “3-amino-pyridines as GPBAR1 agonists” (HOFFMANN-LA ROCHE INC., priority 2011, dated 2019)

The compounds below were run against human GPBAR1 receptor (Homo sapiens (Human), UniProt Q8TDU6) (assay: functional cAMP assay in CHO-dhfr(minus) cells expressing human GPBAR1 receptors). Settings: CHO-dhfr(minus) cells expressing human GPBAR1, 30 min at 30° C.
Format: cell-based
Summary of the method: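 CHO-dhfr- cells were transfected with human GPBAR1, and a clone was chosen by cAMP response to lithocholic acid. EC50 values come from the cAMP read-out; specificity was checked in non-transfected CHO cells.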

human GPBAR1 receptor, sequence (Q8TDU6 whole entry): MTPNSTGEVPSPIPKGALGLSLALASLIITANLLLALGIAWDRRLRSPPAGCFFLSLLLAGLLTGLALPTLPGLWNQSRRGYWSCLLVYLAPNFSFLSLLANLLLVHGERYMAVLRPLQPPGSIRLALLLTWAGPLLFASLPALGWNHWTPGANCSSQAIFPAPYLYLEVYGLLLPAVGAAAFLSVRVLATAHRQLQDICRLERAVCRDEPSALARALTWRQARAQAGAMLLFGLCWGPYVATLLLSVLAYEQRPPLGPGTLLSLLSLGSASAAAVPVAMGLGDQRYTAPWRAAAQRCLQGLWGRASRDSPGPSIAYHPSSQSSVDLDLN

Row | EC50 [nM] | Structure (SMILES)
1 | 242 | Cc1ccccc1-c1ccncc1N(C)C(=O)c1cc(C#N)cc(C(F)(F)F)c1 [Example 149, 3-Cyano-N-methyl-N-(4-o-tolyl-pyridin-3-yl)-5-trifluoromethyl-benzamide]
2 | 19 | COc1cc(F)ccc1-c1ccncc1N(C)C(=O)c1cc(C(F)(F)F)cc(S(=O)(=O)N2CCC2)c1 [Example 249, 3-(Azetidine-1-sulfonyl)-N-[4-(4-fluoro-2-methoxy-phenyl)-pyridin-3-yl]-N-methyl-5-trifluoromethyl-benzamide]
3 | 958 | COc1cc(F)ccc1-c1ccncc1N(C)C(=O)c1cc(O)cc(C(F)(F)F)c1 [Example 226, N-[4-(4-Fluoro-2-methoxy-phenyl)-pyridin-3-yl]-3-hydroxy-N-methyl-5-trifluoromethyl-benzamide]
4 | 258 | Cc1ccccc1-c1ccncc1N(C)C(=O)c1cc(C(F)(F)F)nc(S(C)(=O)=O)c1 [Example 194, 2-Methanesulfonyl-N-methyl-N-(4-o-tolyl-pyridin-3-yl)-6-trifluoromethyl-isonicotinamide]
5 | 56 | CN(C(=O)c1cc(C(F)(F)F)cc(C(F)(F)F)c1)c1cnccc1-c1ccc(F)cc1Cl [Example 67, N-[4-(2-Chloro-4-fluoro-phenyl)-pyridin-3-yl]-N-methyl-3,5-bis-trifluoromethyl-benzamide]
6 | 143 | CC1CCCCN1c1ccncc1N(C)C(=O)c1cc(C(F)(F)F)cc(C(F)(F)F)c1 (stereo not shown) [Example 20, N-Methyl-N-(2-methyl-3,4,5,6-tetrahydro-2H-[1,4′]bipyridinyl-3′-yl)-3,5-bis-trifluoromethyl-benzamide]
7 | 76 | COc1cc(F)ccc1-c1ccncc1N(C)C(=O)c1cc(F)cc(C(F)(F)F)c1 [Example 129, 3-Fluoro-N-[4-(4-fluoro-2-methoxy-phenyl)-pyridin-3-yl]-N-methyl-5-trifluoromethyl-benzamide]
8 | 3500 | COc1cc(F)ccc1-c1ccncc1N(Cc1cc(C)on1)C(=O)c1cc(C(F)(F)F)cc(S(C)(=O)=O)c1 [Example 231, N-[4-(4-Fluoro-2-methoxy-phenyl)-pyridin-3-yl]-3-methanesulfonyl-N-(5-methyl-isoxazol-3-ylmethyl)-5-trifluoromethyl-benzamide]
9 | 351 | Cc1cccnc1-c1ccncc1N(C)C(=O)c1cc(C(F)(F)F)cc(C(F)(F)F)c1 [Example 57, N-Methyl-N-(3-methyl-[2,4′]bipyridinyl-3′-yl)-3,5-bis-trifluoromethyl-benzamide]
10 | 619 | CCC(=O)CN(C(=O)c1cc(C(F)(F)F)cc(S(C)(=O)=O)c1)c1cnccc1-c1ccc(F)cc1OC [Example 204, N-[4-(4-Fluoro-2-methoxy-phenyl)-pyridin-3-yl]-3-methanesulfonyl-N-(2-oxo-butyl)-5-trifluoromethyl-benzamide]
11 | 47 | COc1cc(F)c(F)cc1-c1ccncc1N(CC(N)=O)C(=O)c1cc(C(F)(F)F)cc(C(F)(F)F)c1 [Example 189, N-Carbamoylmethyl-N-[4-(4,5-difluoro-2-methoxy-phenyl)-pyridin-3-yl]-3,5-bis-trifluoromethyl-benzamide]
12 | 54 | CCC(=O)CN(C(=O)c1cc(C(F)(F)F)nc(C(F)(F)F)c1)c1cnccc1-c1ccc(F)cc1OC [Example 203, N-[4-(4-Fluoro-2-methoxy-phenyl)-pyridin-3-yl]-N-(2-oxo-butyl)-2,6-bis-trifluoromethyl-isonicotinamide]
13 | 66 | O=C(c1cc(C(F)(F)F)cc(C(F)(F)F)c1)N(CCO)c1cnccc1-c1ccccc1Cl [Example 115, N-[4-(2-Chloro-phenyl)-pyridin-3-yl]-N-(2-hydroxy-ethyl)-3,5-bis-trifluoromethyl-benzamide]
14 | 721 | Cc1ccccc1-c1ccncc1N(C)C(=O)c1ccc(C(F)(F)F)c(Cl)c1 [Example 97, 3-Chloro-N-methyl-N-(4-o-tolyl-pyridin-3-yl)-4-trifluoromethyl-benzamide]
15 | 102 | CN(C(=O)c1cc(C(F)(F)F)cc(C(F)(F)F)c1)c1cnccc1-c1cccc(F)c1Cl [Example 65, N-[4-(2-Chloro-3-fluoro-phenyl)-pyridin-3-yl]-N-methyl-3,5-bis-trifluoromethyl-benzamide]
16 | 933 | COc1cc(F)ccc1-c1ccncc1N(C)C(=O)c1cc(C2CN(C(=O)OC(C)(C)C)C2)cc(C(F)(F)F)c1 [Example 245, 3-(3-{[4-(4-Fluoro-2-methoxy-phenyl)-pyridin-3-yl]-methyl-carbamoyl}-5-trifluoromethyl-phenyl)-azetidine-1-carboxylic acid tert-butyl ester]
17 | 3460 | CN(C(=O)c1cc(C(F)(F)F)cc(S(C)(=O)=O)c1)c1cnccc1-c1ccc(F)cc1OCc1ccccc1 [Example 267, N-[4-(2-Benzyloxy-4-fluoro-phenyl)-pyridin-3-yl]-3-methanesulfonyl-N-methyl-5-trifluoromethyl-benzamide]
18 | 101 | COc1cc(F)ccc1-c1ccncc1N(CCS(C)(=O)=O)C(=O)c1cc(C(F)(F)F)nc(C(F)(F)F)c1 [Example 162, N-[4-(4-Fluoro-2-methoxy-phenyl)-pyridin-3-yl]-N-(2-methanesulfonyl-ethyl)-2,6-bis-trifluoromethyl-isonicotinamide]
19 | 323 | COc1cc(F)ccc1-c1ccncc1N(C)C(=O)c1cc(C(F)(F)F)cc(S(=O)(=O)CCCCC(=O)O)c1 [Example 248, 5-(3-{[4-(4-Fluoro-2-methoxy-phenyl)-pyridin-3-yl]-methyl-carbamoyl}-5-trifluoromethyl-benzenesulfonyl)-pentanoic acid]
20 | 94 | COc1cc(F)ccc1-c1ccncc1N(C)C(=O)c1cc(C(F)(F)F)cc(S(=O)(=O)CCNS(N)(=O)=O)c1 [Example 269, N-[4-(4-fluoro-2-methoxyphenyl)pyridin-3-yl]-N-methyl-3-{[2-(sulfamoylamino)ethyl]-sulfonyl}-5-(trifluoromethyl)benzamide]
21 | 190 | COc1c(F)cc(F)cc1-c1ccncc1N(C)C(=O)c1cc(C(F)(F)F)cc(C(F)(F)F)c1 [Example 59, N-[4-(3,5-Difluoro-2-methoxy-phenyl)-pyridin-3-yl]-N-methyl-3,5-bis-trifluoromethyl-benzamide]
22 | 478 | COc1cc(F)ccc1-c1ccncc1N(CC(N)=O)C(=O)c1cc(C(F)(F)F)cc(S(C)(=O)=O)c1 [Example 187, N-Carbamoylmethyl-N-[4-(4-fluoro-2-methoxy-phenyl)-pyridin-3-yl]-3-methanesulfonyl-5-trifluoromethyl-benzamide]
23 | 46 | COC(=O)CCS(=O)(=O)c1cc(C(=O)N(C)c2cnccc2-c2ccc(F)cc2OC)cc(C(F)(F)F)c1 [Example 224, 3-(3-{[4-(4-Fluoro-2-methoxy-phenyl)-pyridin-3-yl]-methyl-carbamoyl}-5-trifluoromethyl-benzenesulfonyl)-propionic acid methyl ester]
24 | 90 | Cc1ccccc1-c1ccncc1N(CC(F)(F)F)C(=O)c1cc(C(F)(F)F)nc(C(F)(F)F)c1 [Example 150, N-(4-o-Tolyl-pyridin-3-yl)-N-(2,2,2-trifluoro-ethyl)-2,6-bis-trifluoromethyl-isonicotinamide]
25 | 59 | COc1cc(F)ccc1-c1ccncc1N(C)C(=O)c1cc(C(F)(F)F)nc(S(C)(=O)=O)c1 [Example 221, N-[4-(4-Fluoro-2-methoxy-phenyl)-pyridin-3-yl]-2-methanesulfonyl-N-methyl-6-trifluoro-methyl-isonicotinamide]
